Test results reported in US8227457B2, “Method for treatment of diseases” (DMI Acquisition Corp., priority 2009, dated 2012).

How the values were obtained:
[1] = test system: Primary human umbilical vein endothelial cells (HUVECs); assay: HUVEC cell proliferation (Celltiter 96 AQueous One Solution assay); format: cell-based; settings: 100 μM danazol, all time points
Procedure: Primary human umbilical vein endothelial cells (HUVECs) and EGM-2 growth medium were obtained from Cambrex (Walkersville, Md.). The cells were passaged in medium supplemented with 2% fetal calf serum (FCS) in tissue culture flasks at 37° C. and 5% CO2. Subculturing was performed using trypsin when 60-80% confluence was obtained as specified by the supplier.
Cryopreserved ampoules of passage 2 HUVECs were thawed and plated in 96 well tissue culture plates at 5,000 cells/cm^2. […]. In short, medium was aspirated from each well and the cells were washed with 200 μl Hepes buffered saline (HBSS) from Cambrex warmed to 37° C. 100 μl diluted celltiter solution (15 μl stock+85 μl EGM-2 containing 0.1% FCS) were added to each well and incubated for an additional 4 hours. Optical density was determined by microplate reader using a 530 nm filter after blank subtraction and data presented as OD±standard deviation. The final concentration of ethanol in the wells was less then 0.2% and had no effect on cell proliferation or viability.
All data are presented as representative experiments done in triplicate. Differences between subsets were analyzed using student t-test in Microsoft Excel. P<0.05 was considered statistically significant.
[…]. The celltiter assay is based on the reduction of the assay solution by dehydrogenase enzymes to a formazan dye that directly correlates to cell number.

HUVECs = assay: HUVEC invasion (BioCoat Matrigel Invasion Chambers); format: cell-based, human; settings: 10 μM and 100 μM, 24 hours
Procedure: BioCoat Matrigel Invasion Chambers were purchased from BD Biosciences (San Jose, Calif.). Inserts were rehydrated at 37° C. with 500 μl HBSS for 2 hours prior to use in humidified incubator. Trypsinized HUVECs were washed twice with warm EGM-2 containing 0.1% FCS and added to the upper chamber of the invasion insert at 100,000 cells in a total volume of 250 μl. […]. Non-invasive cells were removed from the upper chamber with moistened cotton swabs and then the inserts were washed twice with HBSS. The inserts were then submerged in 10 μM calcein AM prepared in HBSS and incubated for 4 hours. Fluorescence was determined in a microplate reader at 485 nm excitation and 595 nm emission.
All data is presented as representative experiment done in triplicate. Differences between subsets were analyzed using student t-test in Microsoft Excel. P<0.05 was considered statistically significant.

Structure (SMILES): C#C[C@]1(O)CC[C@H]2[C@@H]3CCC4=Cc5oncc5C[C@]4(C)[C@H]3CC[C@@]21C [Danazol, 17α-pregna-2,4-dien-20-yno[2,3-d]isoxazol-17β-ol]
- effect on cell proliferation [1]: complete arrest of cell proliferation
- effect on FCS-induced cell invasion (HUVECs): no effect
